Here are results for 12 compounds from patent publication US20250129070A1, “BIFUNCTIONAL ANDROGEN RECEPTOR COMPOUNDS” (priority 2023, published 2025).

Common to all, as to format: cell-based
The subject of one experiment is AR / CBP ternary complex. Nature of the experiment: Ternary complex formation assay (sandwich ELISA, AR capture / CBP detection) in VCaP cell lysates. The following applies: 1.5 hours treatment, sandwich ELISA (AR capture, CBP or p300 detection). Summed up: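 VCaP cells (50K/well, 5% charcoal-stripped FBS, ≥3 days) treated with bifunctional compound for 1.5 h, then lysed 30 min at 4 °C. AR captured on anti-AR (AR 441) plates; bound CBP or p300 detected by rabbit mAb plus HRP secondary. QuantaRed chemifluorescence read at ex 570/em 585, immediately and at 5 and 15 min.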

In a further experiment the test system is VCaP cells. The experiment in a line: VCaP growth inhibition assay. The following applies: 30 pM R1881, 9 days, CTG. The gist of the method: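 VCaP cells in phenol red-free DMEM/5% CSS, pre-incubated 72 h, then stimulated with R1881 (final 30 pM) and treated with 1:5 serial dilutions (final 100 nM to 10 fM) for 9 days at 37 °C. Viability by CellTiter-Glo luminescence; IC50 from 4-parameter logistic fit of RLU vs concentration.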

In a further experiment the test system is HEK-293 cells. The experiment in a line: HEK-293 growth inhibition assay. The following applies: 3 days, CTG. The protocol: Cluster plates are returned to the incubator (37*C/5% CO2) for 24 hours prior to treatment. […] Cluster plates are returned to the incubator for 3 days.
After the 3-day treatment period, 100 uL media was removed from each well by aspiration and 100 uL room temperature CTG reagent (Promega Cat #G7573) is added back to each well. The cluster plates are placed on a shaker and incubated at room temperature for 20 minutes. Following this shaking/incubation, cluster plates are read on a luminometer (BMG ClarioStar). IC50 values are obtained by graphing the RLU data vs. compound concentration with nonlinear regression 4-parameter logistic curves (GraphPad Prism).

The compound `CC(=O)N1CCc2c(c(N3CCCc4cc(-c5cnn(C)c5)c(C(F)F)cc43)nn2C2CCN(CC3CCN(c4ncc(C(=O)NC5C(C)(C)C(Oc6ccc(C#N)c(Cl)c6)C5(C)C)cn4)CC3(C)C)CC2)C1` (stereo not drawn) [Compound 356, 2-[4-[[4-[5-acetyl-3-[7-(difluoromethyl)-6-(1-methylpyrazol-4-yl)-3,4-dihydro-2H-quinolin-1-yl]-6,7-dihydro-4H-pyrazolo[4,3-c]pyridin-1-yl]-1-piperidyl]methyl]-3,3-dimethyl-1-piperidyl]-N-[3-(3-chloro-4-cyano-phenoxy)-2,2,4,4-tetramethyl-cyclobutyl]pyrimidine-5-carboxamide] displayed an EC50 with AR / CBP ternary complex of less than 1 nM. Also, the IC50 with VCaP cells is not above 0.1 nM; in the experiment with HEK-293 cells it was more than 1000 nM.

Turning to `CC(=O)N1CCc2c(c(N3CCCc4cc(-c5cnn(C)c5)c(C(F)F)cc43)nn2C2CCN(C(=O)C3CCN(c4ncc(C(=O)NC5C(C)(C)C(Oc6ccc(C#N)c(Cl)c6)C5(C)C)cn4)CC3)CC2)C1` (stereo not drawn) [Compound 22, 2-[4-[4-[5-acetyl-3-[7-(difluoromethyl)-6-(1-methylpyrazol-4-yl)-3,4-dihydro-2H-quinolin-1-yl]-6,7-dihydro-4H-pyrazolo[4,3-c]pyridin-1-yl]piperidine-1-carbonyl]-1-piperidyl]-N-[3-(3-chloro-4-cyano-phenoxy)-2,2,4,4-tetramethyl-cyclobutyl]pyrimidine-5-carboxamide], the EC50 in the experiment on AR / CBP ternary complex was less than 1 nM. Besides, the IC50 was not above 0.1 nM in the experiment with VCaP cells and more than 10000 nM in the experiment with HEK-293 cells.

In the experiment with AR / CBP ternary complex, `CNC(=O)N1CCc2c(c(N3CCCc4cc(-c5cnn(C)c5)c(C(F)F)cc43)nn2C2CCN(C(=O)COCCOC3CCN(c4ncc(C(=O)NC5C(C)(C)C(Oc6ccc(C#N)c(Cl)c6)C5(C)C)cn4)CC3)CC2)C1` (stereo not drawn) [Compound 98, 1-[1-[2-[2-[[1-[5-[[3-(3-chloro-4-cyano-phenoxy)-2,2,4,4-tetramethyl-cyclobutyl]carbamoyl]pyrimidin-2-yl]-4-piperidyl]oxy]ethoxy]acetyl]-4-piperidyl]-3-[7-(difluoromethyl)-6-(1-methylpyrazol-4-yl)-3,4-dihydro-2H-quinolin-1-yl]-N-methyl-6,7-dihydro-4H-pyrazolo[4,3-c]pyridine-5-carboxamide] had an EC50 of less than 1 nM. Moreover, the concentration for half-maximal inhibition (IC50) with VCaP cells was not above 0.1 nM; with HEK-293 cells it was more than 10000 nM.

With `CC(=O)N1CCc2c(c(N3CCCc4cc(-c5cnn(C)c5)c(C(F)F)cc43)nn2C2CCN(C(=O)OC3CCN(c4ncc(C(=O)NC5C(C)(C)C(Oc6ccc(C#N)c(Cl)c6)C5(C)C)cn4)CC3)CC2)C1` (stereo not drawn) [Compound 70, [1-[5-[[3-(3-chloro-4-cyano-phenoxy)-2,2,4,4-tetramethyl-cyclobutyl]carbamoyl]pyrimidin-2-yl]-4-piperidyl]4-[5-acetyl-3-[7-(difluoromethyl)-6-(1-methylpyrazol-4-yl)-3,4-dihydro-2H-quinolin-1-yl]-6,7-dihydro-4H-pyrazolo[4,3-c]pyridin-1-yl]piperidine-1-carboxylate], the EC50 with AR / CBP ternary complex was less than 1 nM. The IC50 is 0.1 to 1 nM in the experiment on VCaP cells and more than 10000 nM in the experiment on HEK-293 cells.

In the experiment on AR / CBP ternary complex, `COc1cc(OC2C(C)(C)C(NC(=O)c3ccc(N4CCC(CN5CCC(n6nc(N7CCCc8cc(-c9cnn(C)c9)c(C(F)F)cc87)c7c6CCN(C(C)=O)C7)CC5)C(C)C4)cc3)C2(C)C)ccc1C#N` (stereo not drawn) [Compound 263, 4-[4-[[4-[5-acetyl-3-[7-(difluoromethyl)-6-(1-methylpyrazol-4-yl)-3,4-dihydro-2H-quinolin-1-yl]-6,7-dihydro-4H-pyrazolo[4,3-c]pyridin-1-yl]-1-piperidyl]methyl]-3-methyl-1-piperidyl]-N-[3-(4-cyano-3-methoxy-phenoxy)-2,2,4,4-tetramethyl-cyclobutyl]benzamide] came in with a concentration giving a half-maximal response (EC50) of less than 1 nM. The figures for the IC50 with VCaP cells and in the experiment with HEK-293 cells were not above 0.1 nM and more than 1000 nM, respectively.

With `CNC(=O)N1CCc2c(c(N3CCCc4cc(-c5cnn(C)c5)c(C(F)F)cc43)nn2C2CCN(C(=O)COCCN3CCN(c4ncc(C(=O)NC5C(C)(C)C(Oc6ccc(C#N)c(Cl)c6)C5(C)C)cn4)CC3)CC2)C1` (stereo not drawn) [Compound 106, 1-[1-[2-[2-[4-[5-[[3-(3-chloro-4-cyano-phenoxy)-2,2,4,4-tetramethyl-cyclobutyl]carbamoyl]pyrimidin-2-yl]piperazin-1-yl]ethoxy]acetyl]-4-piperidyl]-3-[7-(difluoromethyl)-6-(1-methylpyrazol-4-yl)-3,4-dihydro-2H-quinolin-1-yl]-N-methyl-6,7-dihydro-4H-pyrazolo[4,3-c]pyridine-5-carboxamide], the 50% effective concentration (EC50) in the experiment on AR / CBP ternary complex was less than 1 nM. Moreover, the results for the IC50 with VCaP cells and in the experiment with HEK-293 cells were not above 0.1 nM and more than 10000 nM, respectively.

As for `CNC(=O)N1CCc2c(c(N3CCCc4cc(-c5cnn(C)c5)c(C(F)F)cc43)nn2C2CCN(C(=O)COCCCN3CCN(c4ncc(C(=O)NC5C(C)(C)C(Oc6ccc(C#N)c(Cl)c6)C5(C)C)cn4)CC3)CC2)C1` (stereo not drawn) [Compound 105, 1-[1-[2-[3-[4-[5-[[3-(3-chloro-4-cyano-phenoxy)-2,2,4,4-tetramethyl-cyclobutyl]carbamoyl]pyrimidin-2-yl]piperazin-1-yl]propoxy]acetyl]-4-piperidyl]-3-[7-(difluoromethyl)-6-(1-methylpyrazol-4-yl)-3,4-dihydro-2H-quinolin-1-yl]-N-methyl-6,7-dihydro-4H-pyrazolo[4,3-c]pyridine-5-carboxamide], the EC50 in the experiment on AR / CBP ternary complex is less than 1 nM. Further, the figures for the IC50 with VCaP cells and in the experiment on HEK-293 cells were 0.1 to 1 nM and more than 10000 nM, respectively.

Consider `CC(=O)N1CCc2c(c(N3CCCc4cc(-c5cnn(C)c5)c(C(F)F)cc43)nn2C2CCN(C(=O)COC3CCN(c4ncc(C(=O)NC5C(C)(C)C(Oc6ccc(C#N)c(Cl)c6)C5(C)C)cn4)CC3)CC2)C1` (stereo not drawn) [Compound 69, 2-[4-[2-[4-[5-acetyl-3-[7-(difluoromethyl)-6-(1-methylpyrazol-4-yl)-3,4-dihydro-2H-quinolin-1-yl]-6,7-dihydro-4H-pyrazolo[4,3-c]pyridin-1-yl]-1-piperidyl]-2-oxo-ethoxy]-1-piperidyl]-N-[3-(3-chloro-4-cyano-phenoxy)-2,2,4,4-tetramethyl-cyclobutyl]pyrimidine-5-carboxamide], for which the EC50 with AR / CBP ternary complex is less than 1 nM. Further, the 50% inhibitory concentration (IC50) in the experiment on VCaP cells was 0.1 to 1 nM; with HEK-293 cells it was more than 10000 nM.

In the experiment with AR / CBP ternary complex, `CNC(=O)N1CCc2c(c(N3CCCc4cc(-c5cnn(C)c5)c(C(F)F)cc43)nn2C2CCN(C(=O)COCCOCCN3CCN(c4ncc(C(=O)NC5C(C)(C)C(Oc6ccc(C#N)c(Cl)c6)C5(C)C)cn4)CC3)CC2)C1` (stereo not drawn) [Compound 103, 1-[1-[2-[2-[2-[4-[5-[[3-(3-chloro-4-cyano-phenoxy)-2,2,4,4-tetramethyl-cyclobutyl]carbamoyl]pyrimidin-2-yl]piperazin-1-yl]ethoxy]ethoxy]acetyl]-4-piperidyl]-3-[7-(difluoromethyl)-6-(1-methylpyrazol-4-yl)-3,4-dihydro-2H-quinolin-1-yl]-N-methyl-6,7-dihydro-4H-pyrazolo[4,3-c]pyridine-5-carboxamide] showed an EC50 of less than 1 nM. In addition, the IC50 was 0.1 to 1 nM in the experiment with VCaP cells and more than 10000 nM with HEK-293 cells.

In the experiment on AR / CBP ternary complex, `CNC(=O)N1CCc2c(c(N3CCCc4cc(-c5cnn(C)c5)c(C(F)F)cc43)nn2C2CCN(CCOc3ncc(C(=O)NC4C(C)(C)C(Oc5ccc(C#N)c(Cl)c5)C4(C)C)cn3)CC2)C1` (stereo not drawn) [Compound 87, 1-[1-[2-[5-[[3-(3-chloro-4-cyano-phenoxy)-2,2,4,4-tetramethyl-cyclobutyl]carbamoyl]pyrimidin-2-yl]oxyethyl]-4-piperidyl]-3-[7-(difluoromethyl)-6-(1-methylpyrazol-4-yl)-3,4-dihydro-2H-quinolin-1-yl]-N-methyl-6,7-dihydro-4H-pyrazolo[4,3-c]pyridine-5-carboxamide] yielded an EC50 of less than 1 nM. For the same compound, the results for the half-maximal inhibitory concentration (IC50) in the experiment with VCaP cells and with HEK-293 cells were 0.1 to 1 nM and more than 10000 nM, respectively.

In the case of `CC(=O)N1CCc2c(c(-c3cccc4cc(-c5cnc(C(=O)NCc6ncc(C(=O)NC7C(C)(C)C(Oc8ccc(C#N)c(Cl)c8)C7(C)C)cn6)nc5)ncc34)nn2C2CCOCC2)C1` (stereo not drawn) [Compound 75, 5-[8-(5-acetyl-1-tetrahydropyran-4-yl-6,7-dihydro-4H-pyrazolo[4,3-c]pyridin-3-yl)-3-isoquinolyl]-N-[[5-[[3-(3-chloro-4-cyano-phenoxy)-2,2,4,4-tetramethyl-cyclobutyl]carbamoyl]pyrimidin-2-yl]methyl]pyrimidine-2-carboxamide], the EC50 in the experiment on AR / CBP ternary complex is more than 100 nM. The figures for the IC50 in the experiment on VCaP cells and in the experiment with HEK-293 cells were 0.1 to 1 nM and more than 10000 nM, respectively.

Regarding `CNC(=O)N1CCc2c(c(N3CCCc4cc(-c5cnn(C)c5)c(C(F)F)cc43)nn2C2CCN(CCc3ncc(C(=O)NC4C(C)(C)C(Oc5ccc(C#N)c(Cl)c5)C4(C)C)cn3)CC2)C1` (stereo not drawn) [Compound 90, 1-[1-[2-[5-[[3-(3-chloro-4-cyano-phenoxy)-2,2,4,4-tetramethyl-cyclobutyl]carbamoyl]pyrimidin-2-yl]ethyl]-4-piperidyl]-3-[7-(difluoromethyl)-6-(1-methylpyrazol-4-yl)-3,4-dihydro-2H-quinolin-1-yl]-N-methyl-6,7-dihydro-4H-pyrazolo[4,3-c]pyridine-5-carboxamide], in the experiment with AR / CBP ternary complex, the EC50 is less than 1 nM. Besides, the IC50 with VCaP cells was more than 100 nM; in the experiment with HEK-293 cells, 2160 nM.

What is called EC50 is the concentration at which the effect is half-maximal. A low value points to higher potency in that assay. By IC50 is commonly meant the concentration that inhibits the measured activity by half. The low end stands for inhibition by little substance, the high end for a need for much substance.
